# In article PMC6429710, “Structure–activity relationships in a series of antiplasmodial thieno[2,3-b]pyridines” (Malaria Journal, 2019):
# Where two headings read alike, the source gives them in different places.
# Key:
# [1] = target: T1, PfGSK-3 (Plasmodium falciparum, UniProt O77344); assay: biochemical; type: biochemical
# T1 construct: 6xHis; made in house; host or cells: Escherichia coli C41
# T1 sequence (O77344 1-440): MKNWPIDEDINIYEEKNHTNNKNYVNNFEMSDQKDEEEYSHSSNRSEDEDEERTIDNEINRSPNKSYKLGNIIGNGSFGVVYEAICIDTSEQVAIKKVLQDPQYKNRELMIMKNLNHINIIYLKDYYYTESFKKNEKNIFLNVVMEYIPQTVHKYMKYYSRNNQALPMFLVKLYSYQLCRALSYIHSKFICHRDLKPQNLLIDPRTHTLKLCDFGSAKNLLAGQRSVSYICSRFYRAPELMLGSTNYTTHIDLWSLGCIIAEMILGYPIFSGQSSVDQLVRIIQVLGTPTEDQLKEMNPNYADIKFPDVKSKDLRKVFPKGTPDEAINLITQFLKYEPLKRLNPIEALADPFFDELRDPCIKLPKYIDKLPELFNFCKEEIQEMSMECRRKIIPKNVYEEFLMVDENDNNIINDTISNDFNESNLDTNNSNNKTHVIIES
# Procedure: PfGSK-3 was cloned into pOPIN F expression vector [41] using ligation independent cloning (InFusion, Takara Clontech). Expression vector was transformed into Escherichia coli C41 and expression of recombinant PfGSK3-6xHis was induced by incubation with 1 mM IPTG at 16 °C overnight.
# Kinase activity was measured using Kinase-Glo Plus Luminescent Kinase Assay (Promega). 20 ng recombinant GSK-3 were incubated for 30 min at 30 °C in the presence of 12 μM GS-1 peptide substrate ([…]pSEDEEE, pS stands for phosphorylated serine, Biaffin GmbH & Co KG/proteinkinase.de) and 6 μM ATP (ultra pure, Promega) in a total volume of 5 μL kinase reaction buffer (40 mM Tris/HCl pH 7.5; 20 mM MgCl2; 0.1 mg/mL BSA). Kinase reaction mix was transferred to a solid white 384 well plate (NUNC, Thermo Scientific) and kinase reaction was stopped by adding 5 μL RT Kinase-Glo reagent. After 10 min luminescence was measured in an EnVision multilabel plate reader (Perkin Elmer, integration time 0.5 s/well). […] All samples were normalized to a negative control (reaction without kinase). Data points were plotted into Graphpad Prism, normalized to a DMSO control and IC50 values were calculated using nonlinear regression.
# [2] = system: asexual erythrocytic stages of transgenic NF54-luc P. falciparum; assay: Luciferase-based viability screening for antiplasmodial activity; type: cell-based, Plasmodium falciparum; settings: 48 h
# Procedure: For the luciferase-based viability assays, asexual erythrocytic stages of transgenic NF54-luc P. falciparum were used. These parasites constitutively express high luciferase levels. The parasites were cultured as described previously. Parasite cultures with parasitaemia of 0.5–1% were dispensed in triplicate into white 96-well flat-bottom plates (each well contains 250 µL) (NUNC, Roskilde, Denmark) and incubated in the presence of 3 µM test compounds for 48 h (37 °C, 90% N2, 5% CO2, and 5% O2). 0.01% DMSO was included in the untreated infected RBC cultures as negative control, since the compounds stock initially was diluted in DMSO and each treatment well also contained 0.01% DMSO. Subsequently, 100 µL RPMI1640 media was removed from each well and a 100 µL volume of the Bright-Glo® substrate solution was added to each well. The resultant cleavage product of the reaction, light, was measured using a […] luminometer (Thermo), to ascertain viable parasites. Untreated cultures were used as negative controls and to calculate the inhibition rate (0% inhibition of parasite growth). Experiments were performed in triplicate and were repeated as a whole at least twice. Blasticidin (Sigma-Aldrich, St. Louis, MO, USA), used for selection of transfected parasites, was included as a positive control on each plate and gave > 90% inhibition of parasite growth at concentration 2 µg/mL. […] For active compounds IC50 values were determined from dose–response curves. Calculation of parasite growth inhibition, of the IC50 values and statistical analysis were carried out using GraphPad Prism Version 6.0b (GraphPad Software, Inc. San Diego, CA).
# [3] = target: HsGSK-3 (Homo sapiens, UniProt P49841); assay: Kinase-Glo Plus assay for inhibition of HsGSK-3; type: biochemical; settings: 6 µM ATP; mean of three determinations, range in brackets
# Chain of HsGSK-3 (P49841 whole entry): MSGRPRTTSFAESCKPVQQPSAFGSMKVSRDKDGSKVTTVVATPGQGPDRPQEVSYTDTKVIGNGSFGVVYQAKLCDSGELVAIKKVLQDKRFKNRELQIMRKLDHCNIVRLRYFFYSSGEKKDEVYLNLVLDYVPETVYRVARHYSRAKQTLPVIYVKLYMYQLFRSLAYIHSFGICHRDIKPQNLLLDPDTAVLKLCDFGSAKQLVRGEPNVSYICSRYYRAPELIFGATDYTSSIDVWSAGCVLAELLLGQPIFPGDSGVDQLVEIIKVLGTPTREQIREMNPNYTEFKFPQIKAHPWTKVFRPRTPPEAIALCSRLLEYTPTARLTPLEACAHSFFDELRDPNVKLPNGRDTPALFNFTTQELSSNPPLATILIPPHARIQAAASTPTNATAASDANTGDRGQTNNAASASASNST
# Procedure: Kinase reaction mix was transferred to a solid white 384 well plate (NUNC, Thermo Scientific) and kinase reaction was stopped by adding 5 μL RT Kinase-Glo reagent. After 10 min luminescence was measured in an EnVision multilabel plate reader (Perkin Elmer, integration time 0.5 s/well). […] All samples were normalized to a negative control (reaction without kinase). Data points were plotted into Graphpad Prism, normalized to a DMSO control and IC50 values were calculated using nonlinear regression.
# [4] = target: T1, PfGSK-3; type: biochemical; settings: 15 µM ATP; mean of two determinations, range in brackets; read-out: IC50 [µM], PfGSK-3 (radiometric)
# Procedure: Recombinant GST-PfGSK-His was expressed in Rosetta 2 (DE3) cells and purified on cobalt affinity resin as described previously. Recombinant PfGSK-3 ([…]) was assayed with 48 µM GS-1 peptide as a substrate, in 25 mM Tris–HCl pH 7.5, 10 mM MgCl2, 1 mM EGTA, 1 mM EDTA, 0.5 mg/mL BSA, 5 mM DTT, 2 µg/mL heparin, in the presence of 15 µM [γ-^32P] ATP (3000 Ci/mmol; 1 mCi/mL) (Perkin-Elmer, USA) in a final volume of 25 µL. After 30 min incubation at 30 °C, 8 µL aliquots were spotted onto 1 × 1 cm pieces of P81 phosphocellulose paper (Reaction Biology, Malvern, PA, USA) and 20 s later, the filters were washed five times (for at least 5 min each time) in a solution of 10 mL phosphoric acid/L water. Filters were rinsed in acetone and the dried filters and radioactivity was measured by Cherenkov counting. Blank values were subtracted and activities were expressed in percentage of the maximal activity, i.e. in the absence of inhibitors. Controls were performed with appropriate dilutions of dimethylsulfoxide.
compound,measurement,setting,value
CN(C)CCN(C)c1ccc(-c2c(C#N)c(N)nc3sc(C(=O)c4cccc(Cl)c4)c(N)c23)c(Cl)c1 [4h],IC50,"[1]; 6 µM ATP, mean of three determinations, range in brackets, read-out: IC50 [µM], PfGSK-3 (Kinase Glo Plus)",0.72 µM
same,selectivity index plasmodial versus human GSK-3,"[1]; Kinase Glo Plus assay, PfGSK-3 versus HsGSK-3",56
same,"% inhibition ± SD, PfNF54-Luc at 3 µM","[2]; 3 µM test compound, luciferase readout, ± SD",99.9 ± 0.1%
same,IC50,"[2]; from dose-response curves, read-out: IC50 [µM], PfNF54-Luc",1.2 µM
same,IC50,[3],40.2 µM
same,IC50,[4],0.184 µM
